Assays:
[1] = Sirolimus whole blood pharmacokinetics (LC-MS/MS); type: in vivo, apoE^−/− mice; details: i.p., daily, 0.5, 1.0 and 4.0 mg/kg
Procedure: (§1) Upon initiation of the pro-atherogenic diet and osmotic mini-pump implantation, mice were randomly assigned to four groups; namely, vehicle control, rapamycin or sirolimus 0.5 mg/kg, sirolimus 1.0 mg/kg and sirolimus 4.0 mg/kg body weight. The defined amount of sirolimus was dissolved in ethanol, brought up in a vehicle comprising 0.2 percent Sodium carboxymethylcellulose and 0.25 percent tween 80) and administrated to mice (i.p., daily).
Sirolimus was quantitated using liquid-liquid extraction and reverse-phase liquid chromatography mass spectrometry (LC-MS/MS). Briefly, 100 μl of mouse whole blood sample underwent protein precipitation with 5 percent Methanol/Zinc sulfate solution containing the internal standard ascomycin. After centrifugation of the resulting solution, the liquid mixture proceeded with liquid-liquid extraction with 1-chlorobutane. The combined organic extract was then blown down to dryness and reconstituted with 50:50 Methanol:20 mM ammonium acetate solution. The samples were analyzed on API-5000 using C18 reverse-phase chromatography in Multiple Reaction Monitoring (MRM) mode using atmospheric pressure chemical ionization (APCI) approach. The calibration standard curve results for sirolimus in mouse whole blood were acceptable from 0.5 ng/ml to 10,000 ng/ml with correlation coefficient of 0.998. The percent bias for the calibration standards ranged from about […] to about 8.0 percent.
The regimen of sirolimus administration (i.p., daily, 0.5, 1.0, and 4.0 mg/kg) results in significant increase of whole blood sirolimus levels in the apoE^−/− mice within 24 hours post injection. The blood drug levels reached peak level at 1 hour post injection, dropped to approximately 30 to 40 percent at 6 hours and remained at trace level at 24 hours.

[2] = system: apoE^−/− mice; experiment: Health status, body weight and re-suturing incidence post mini-pump surgery; type: in vivo
Text: (§2) ApoE^−/− mice (backcrossed ten times to the C57BL/6 background) were purchased from The Jackson Laboratory. The mice were kept on a twelve-hour light/twelve-hour dark regimen upon arrival. All animal experiments were approved by the IACUC of the Consumer & Personal Product Worldwide, in accordance with AAALAC guidelines. Eight week old, male apoE^−/− mice were fed a normal mouse-chow diet (RP5001; PMI Feeds Inc., St. Louis, Mo.) and acclimated for one week before switching to a pro-atherogenic high fat, high cholesterol, diet (“Western diet”, 21% fat, 0.2% cholesterol, diet No. 88137, Harlan-Teklad, Madison, Wis.) for four weeks.
(§3) Upon initiation of the pro-atherogenic diet, Alzet osmotic mini-pumps (Model 2004; ALZA Scientific Products, Mountain View, Calif.) were implanted into the apoE^−/− mice subcutaneously. The mini-pumps were loaded with angII (EMD Biosciences, San Diego, Calif.) at the delivery rate of 1,000 ng/min/kg for twenty-eight days. The mice were anesthetized using isoflurane for the implantation of the mini-pumps. Small incisions in the lower back of the neck were made and the mini-pumps were inserted into the subcutaneous space of the mice. The incisions were then closed using sterile staplers. Triple antibiotic ointment was applied to each incision post surgery. The mice on the high fat, high cholesterol diet were sacrificed by CO2 inhalation twenty-eight days post mini-pump implantation as is explained in detail subsequently.
as §1
The data is depicted as re-suturing incedince post surgery per group size. A clear increase of the suture index is observed in response to sirolimus administration in a dose dependent manner.

[3] = Plasma lipids (total cholesterol, triglycerides, LDL and HDL cholesterol); type: in vivo, apoE^−/− mice
Text: as §2, §3, §1
Plasma triglyceride and total cholesterol levels were determined via an automated enzymatic technique (Equal Diagnostic Inc., Exton, Pa.). Mouse lipoproteins were separated by fast protein liquid chromatography (FPLC) analysis of plasma using 2 Superose 6 columns in series (Pharmacia Biotech Inc., Piscataway, N.J.). Aliquots of mouse plasma (100 μl) were injected onto the column, separated with a buffer containing 0.15 M NaCl, 0.01 M Na2HPO4, and 0.1 mM EDTA (pH 7.5) at a flow rate of 0.5 mL/min, and analyzed for lipids.

[4] = system: apoE^−/− mice; experiment: Abdominal aortic adventitia lesion analysis (incidence and severity); type: in vivo; details: 1 of 22 mice; vehicle control 30 percent, 3 of 10 mice
Text: ApoE^−/− mice (backcrossed ten times to the C57BL/6 background) were purchased from The Jackson Laboratory. The mice were kept on a twelve-hour light/twelve-hour dark regimen upon arrival. All animal experiments were approved by the IACUC of the Consumer & Personal Product Worldwide, in accordance with AAALAC guidelines. Eight week old, male apoE^−/− mice were fed a normal mouse-chow diet (RP5001; PMI Feeds Inc., St. Louis, Mo.) and acclimated for one week before switching to a pro-atherogenic high fat, high cholesterol, diet (“Western diet”, 21% fat, 0.2% cholesterol, diet No. 88137, Harlan-Teklad, Madison, Wis.) for four weeks. […]
The abdominal aorta was subjected to abdominal aortic adventitia lesion analysis. […] Classification of the adventitia lesions was determined according to the scale based on the gross appearance of the aorta reported by Daugherty et al. Briefly, I: Dilated lumen in the supra-renal region of the aorta with no thrombus; II: Remodeled tissue in the supra-renal region that frequently contains thrombus; III: A pronounced bulbous form of type II that contains thrombus; IV: A form in which there are multiple adventitia lesions containing thrombus, some overlapping, in the suprarenal area of the aorta.

- blood drug level at 6 hours (relative to peak level) ([1]; 6 hours post injection): 30 to 40%
- blood drug level at 24 hours ([1]; 24 hours post injection): trace level
- time of peak whole blood drug level post injection ([1]; whole blood): 1 h
- elevation of LDL cholesterol ([3]; all sirolimus treated mice): > 60%
- increase of plasma total cholesterol level vs vehicle control ([3]; i.p., daily, 0.5, 1.0 and 4.0 mg/kg, angII, Western diet, 28 days): 44 to 50%
- increase of HDL cholesterol ([3]; mice receiving sirolimus): 55 to 81%
- triglyceride ([3]; regardless of the dosage employed): trend of elevated triglyceride
Compound: CO[C@H]1C[C@@H]2CC[C@@H](C)[C@@](O)(O2)C(=O)C(=O)N2CCCC[C@H]2C(=O)O[C@H]([C@H](C)C[C@@H]2CC[C@@H](O)[C@H](OC)C2)CC(=O)[C@H](C)/C=C(\C)[C@@H](O)[C@@H](OC)C(=O)[C@H](C)C[C@H](C)/C=C/C=C/C=C/1C [sirolimus]
- body weight ([2]; all 3 sirolimus treated groups, no statistical significance): trend of decreased body weight
- health status ([2]; i.p., daily, 0.5, 1.0 and 4.0 mg/kg, angII infusion, high fat, high cholesterol diet): not overtly affected
- re-suturing incidence post surgery (wound healing) ([2]; post mini-pump implantation, dose dependent): increased incidence of re-suturing
- incidence of abdominal aortic adventitia lesion [4]: 4.5%

From patent US20080171705A1, “METHODS OF INDUCING AND TREATING VASCULAR DISEASE” (priority 2007, published 2008)
